Structures can show the parent of a compound that is named as a salt.
What was measured:
[1] = tested on: repetitive cold stress rat models; assay: Test for inhibition of pain threshold decrease by repetitive cold stress (continuous administration), Randall-Selitto method; format: in vivo; conditions: for Rate of inhibition of pain threshold decrease (%): rat, in vivo; for Rate of inhibition of pain threshold decrease (%) / inhibition in vivo at 3 mg/kg: po; for inhibition in vivo at 3 mg/kg: Rattus norvegicus, 192 h, day 8 after applying the repetitive cold stress, orally 3 mg/kg once a day, with stress, average of 5 or 6 cases, read-out: Rate of inhibition of pain threshold decrease (%)
[2] = tested on: repetitive cold stress rat models; assay: Test for inhibition of pain threshold decrease by repetitive cold stress (single administration), Randall-Selitto method; format: in vivo; conditions: 24 hours after single administration on day 8 of repetitive cold stress; orally 3 mg/kg; with stress; average of 6 cases

SMILES | Rate of inhibition of pain threshold decrease (%) ([1]; 3 mg/kg) | Pain threshold (mmHg) [2] [mmHg] | Rate of inhibition of pain threshold decrease (%) [2] [%] | inhibition in vivo at 3 mg/kg [1] [%] | other results
CC(=O)OC(C(=O)O)C(OC(C)=O)C(=O)O.COCCN(CCCOc1ccc(OC)cc1C1Sc2cc(Cl)ccc2N1C(C)=O)C(C)C (single isomer, unassigned; (+)) [Compound B, (+)-3-acetyl-6-chloro-2-[2-(3-(N-(2-methoxyethyl)-N-isopropylamino)propoxy)-5-methoxyphenyl]benzothiazolinediacetyl tartrate] | 53.9 | 21.5 | −1.9 | – | –
COc1ccc(OC(C)CCN(CCO)C(C)C)c(C2Sc3cc(Cl)ccc3N2C(C)=O)c1 (stereo not drawn) [Compound G, 3-acetyl-6-chloro-2-[2-(3-(N-(2-hydroxyethyl)-N-isopropylamino)-1-methylpropoxy)-5-methoxyphenyl]benzothiazoline hydrochloride] | – | – | – | 32.8 | –
COCOCCN(CCCOc1ccc(OC)cc1C1Sc2cc(Cl)ccc2N1C(C)=O)C(C)C.Cl (single isomer, unassigned; (+)) [Compound I, (+)-3-acetyl-6-chloro-2-[2-(3-(N-isopropyl-(N-methoxymethyloxyethyl)amino)propoxy)-5-methoxyphenyl]benzothiazoline hydrochloride] | 43.1 | – | – | – | –
CC(=O)OC(C(=O)O)C(OC(C)=O)C(=O)O.CCOCCN(CCCOc1ccc(OC)cc1C1Sc2cc(Cl)ccc2N1C(C)=O)C(C)C (single isomer, unassigned; (+)) [Compound C, (+)-3-acetyl-6-chloro-2-[2-(3-(N-(2-ethoxyethyl)-N-isopropylamino)propoxy)-5-methoxyphenyl]benzothiazolinediacetyl tartrate] | 73.4 | 21.7 | 0 | – | –
COc1ccc(OCCCN(CCO)C(C)C)c(C2Sc3cc(Cl)ccc3N2C(C)=O)c1.Cl (single isomer, unassigned; (+)) [Compound A, (+)-3-acetyl-6-chloro-2-[2-(3-(N-(2-hydroxyethyl)-N-isopropylamino)propoxy)-5-methoxyphenyl]benzothiazoline hydrochloride] | – | 21.7 | 0 | 52.1 | –
COc1ccc(OCCCN(CCOC(C)=O)C(C)C)c(C2Sc3cc(Cl)ccc3N2C(C)=O)c1 (single isomer, unassigned; (+)) [Compound H, (+)-2-[2-(3-(N-(2-acetoxyethyl)-N-isopropylamino)propoxy)-5-methoxyphenyl]-3-acetyl-6-chlorobenzothiazoline hydrochloride] | – | – | – | 34.5 | –
O=C(O)Cc1ccccc1Nc1c(Cl)cccc1Cl [Compound L, Diclofenac, reference compound] | – | – | – | – | activity on inhibiting a decrease in pain threshold ([1]; result in words, continuous administration once a day, day 8 of repetitive cold stress): not observed at all
CCOCCN(CCCOc1ccc(OC)cc1C1Sc2cc(Cl)ccc2N1C(C)=O)C(C)C.Cl (stereo not drawn) [Compound K, 3-acetyl-6-chloro-2-[2-(3-(N-(2-ethoxyethyl)-N-isopropylamino)propoxy)-5-methoxyphenyl]benzothiazolinediacetyl hydrochloride] | – | – | – | – | Rate of inhibition of pain threshold decrease (%) ([1]; 10 mg/kg): 62.7%
COc1ccc(OCCCCl)c(C2Sc3cc(Cl)ccc3N2C(C)=O)c1 (single isomer, unassigned; (+)) [Compound F, (+)-3-acetyl-6-chloro-2-[2-(3-chloropropoxy)-5-methoxyphenyl]benzothiazoline hydrochloride] | – | – | – | 43.1 | –

— patent publication US7642274B2, “Inhibitor of pain threshold decrease” (Santen Pharmaceutical Co., Ltd., priority 2003, dated 2010)
